Values after ≈ are worked out from the molar mass of the structure shown.
Legend:
[1] = Antiproliferative activity against human MDA231 cells; type: functional, cell-based; conditions: MDA-MB-231
[2] = Antiproliferative activity against human MDA468 cells; type: functional, cell-based; conditions: MDA-MB-468
[3] = biological target: Cytochrome P450 2C19 (Homo sapiens, UniProt P33261); test: Inhibition of human CYP2C19; type: ADME
[4] = biological target: T1, Cytochrome P450 1A2 (Homo sapiens, UniProt P05177); test: Inhibition of human CYP1A2; type: ADME
T1 sequence (P05177 whole entry): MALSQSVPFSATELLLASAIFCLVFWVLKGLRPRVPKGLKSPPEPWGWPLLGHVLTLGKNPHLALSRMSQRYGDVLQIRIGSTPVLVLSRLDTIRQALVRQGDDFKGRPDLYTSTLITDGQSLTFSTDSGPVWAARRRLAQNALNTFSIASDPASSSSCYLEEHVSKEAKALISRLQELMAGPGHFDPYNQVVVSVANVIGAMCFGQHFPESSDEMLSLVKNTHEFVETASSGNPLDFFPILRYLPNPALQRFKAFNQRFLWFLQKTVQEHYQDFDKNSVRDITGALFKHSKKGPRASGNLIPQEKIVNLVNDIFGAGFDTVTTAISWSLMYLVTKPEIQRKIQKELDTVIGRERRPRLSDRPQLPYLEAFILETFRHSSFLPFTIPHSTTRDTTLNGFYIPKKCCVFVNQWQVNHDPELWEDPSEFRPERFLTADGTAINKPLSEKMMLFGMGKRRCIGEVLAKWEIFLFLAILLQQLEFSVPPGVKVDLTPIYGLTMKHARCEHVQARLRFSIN

[5] = Aqueous solubility at pH 7.0; type: physicochemical
[6] = Permeability across human Caco-2 cell membrane; type: ADME, cell-based; conditions: read-out: permeability
[7] = biological target: Cytochrome P450 3A4 (Homo sapiens, UniProt P08684); test: Inhibition of human CYP3A4; type: ADME
[8] = biological target: Cytochrome P450 2C9 (Homo sapiens, UniProt P11712); test: Inhibition of human CYP2C9; type: ADME
[9] = biological target: Cytochrome P450 2D6 (Homo sapiens, UniProt P10635); test: Inhibition of human CYP2D6; type: ADME
[10] = test system: Serum; test: Protein binding to human serum; type: ADME, cell-free

Cytochrome P450 2D6, sequence (P10635 whole entry): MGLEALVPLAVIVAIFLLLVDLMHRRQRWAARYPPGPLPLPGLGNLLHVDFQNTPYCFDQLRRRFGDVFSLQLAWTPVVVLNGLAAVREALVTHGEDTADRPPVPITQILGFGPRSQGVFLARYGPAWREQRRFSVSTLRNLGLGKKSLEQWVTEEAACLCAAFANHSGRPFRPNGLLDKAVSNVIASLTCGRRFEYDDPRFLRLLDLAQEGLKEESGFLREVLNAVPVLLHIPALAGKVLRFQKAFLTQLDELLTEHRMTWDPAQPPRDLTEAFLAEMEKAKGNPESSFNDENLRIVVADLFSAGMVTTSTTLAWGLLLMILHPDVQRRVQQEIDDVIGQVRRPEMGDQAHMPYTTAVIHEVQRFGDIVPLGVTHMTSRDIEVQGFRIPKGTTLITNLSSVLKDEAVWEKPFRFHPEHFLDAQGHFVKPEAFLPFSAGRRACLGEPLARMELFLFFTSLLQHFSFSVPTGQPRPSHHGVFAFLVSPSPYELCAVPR
Cytochrome P450 2C19, sequence (P33261 whole entry): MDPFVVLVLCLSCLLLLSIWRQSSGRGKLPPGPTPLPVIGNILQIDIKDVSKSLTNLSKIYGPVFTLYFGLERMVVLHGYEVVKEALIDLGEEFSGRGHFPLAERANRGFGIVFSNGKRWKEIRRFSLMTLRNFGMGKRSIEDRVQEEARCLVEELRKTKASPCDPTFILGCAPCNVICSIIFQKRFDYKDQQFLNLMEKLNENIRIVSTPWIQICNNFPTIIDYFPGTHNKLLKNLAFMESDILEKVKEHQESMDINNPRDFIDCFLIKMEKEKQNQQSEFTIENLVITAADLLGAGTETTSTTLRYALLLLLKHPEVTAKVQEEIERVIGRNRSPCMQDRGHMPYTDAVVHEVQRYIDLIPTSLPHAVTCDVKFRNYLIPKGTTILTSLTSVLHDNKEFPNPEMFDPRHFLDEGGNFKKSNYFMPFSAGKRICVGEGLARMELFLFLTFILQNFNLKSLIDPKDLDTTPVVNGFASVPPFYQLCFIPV
Cytochrome P450 3A4, sequence (P08684 whole entry): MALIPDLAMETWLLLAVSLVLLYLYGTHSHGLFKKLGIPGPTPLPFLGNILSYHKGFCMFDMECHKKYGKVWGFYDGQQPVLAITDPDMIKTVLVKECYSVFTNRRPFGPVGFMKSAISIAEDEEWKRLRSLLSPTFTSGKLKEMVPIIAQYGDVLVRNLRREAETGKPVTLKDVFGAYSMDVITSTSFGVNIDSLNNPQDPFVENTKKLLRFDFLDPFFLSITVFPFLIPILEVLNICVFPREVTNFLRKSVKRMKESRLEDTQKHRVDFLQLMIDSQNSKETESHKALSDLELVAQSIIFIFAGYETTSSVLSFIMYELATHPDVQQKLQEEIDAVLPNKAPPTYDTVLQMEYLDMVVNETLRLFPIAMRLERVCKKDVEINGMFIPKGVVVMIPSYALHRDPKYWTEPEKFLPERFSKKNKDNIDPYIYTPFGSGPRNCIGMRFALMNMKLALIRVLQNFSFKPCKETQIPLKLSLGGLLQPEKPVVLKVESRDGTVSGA
Cytochrome P450 2C9, sequence (P11712 whole entry): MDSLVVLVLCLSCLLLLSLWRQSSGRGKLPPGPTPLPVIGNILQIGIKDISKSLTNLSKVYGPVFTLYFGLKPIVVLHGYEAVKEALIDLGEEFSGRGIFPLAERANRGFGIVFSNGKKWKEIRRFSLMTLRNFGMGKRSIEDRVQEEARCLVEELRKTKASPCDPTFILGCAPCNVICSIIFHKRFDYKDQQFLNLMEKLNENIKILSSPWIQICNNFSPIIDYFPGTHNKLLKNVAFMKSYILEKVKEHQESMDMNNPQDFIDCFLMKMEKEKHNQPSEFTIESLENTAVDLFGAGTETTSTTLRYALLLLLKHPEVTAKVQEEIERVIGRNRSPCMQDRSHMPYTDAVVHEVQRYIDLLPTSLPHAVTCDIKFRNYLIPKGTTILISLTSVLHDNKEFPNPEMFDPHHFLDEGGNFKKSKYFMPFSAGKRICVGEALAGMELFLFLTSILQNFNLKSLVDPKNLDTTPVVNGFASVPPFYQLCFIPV

Work on `O=C(O)c1cccc2c1NC(=O)C2(c1ccc(O)cc1)c1ccc(O)cc1` yielded an IC50 [1] greater than 3000 nM and an IC50 [2] greater than 3000 nM.
`O=C1Nc2c(C(F)(F)F)cccc2C1(c1ccc(O)cc1)c1ccc(O)cc1` showed an Activity [3] of 1 µM, an Activity [4] greater than 10 µM and a solubility [5] of 640 µg/mL (≈ 1660 µM). It also gave a Papp [6] of 1.96 ×10⁻⁶ cm/s, an Activity [7] greater than 10 µM and an Activity [8] of 1 µM. It also gave an Activity [9] greater than 10 µM.
With `O=C1Nc2ccccc2C1(c1ccc(O)cc1)c1ccc(O)cc1` [OXYPHENISATINE] the IC50 [1] was greater than 3000 nM and the IC50 [2] was 112 nM.
`O=C1Nc2c(ccc3c2CCCCC3)C1(c1ccc(O)cc1)c1ccc(O)cc1` showed an IC50 [1] greater than 3000 nM and an IC50 [2] of 55 nM.
With `Cc1cccc2c1NC(=O)C2(c1ccc(O)cc1)c1ccc(O)cc1` the IC50 [1] was greater than 3000 nM and the IC50 [2] was 27 nM.
Compound `COc1ccc(C2(c3ccc(OC)cc3)C(=O)Nc3ccccc32)cc1` has an IC50 [1] greater than 3000 nM and an IC50 [2] of 1800 nM.
For `O=C1Nc2c(I)cccc2C1(c1ccc(O)cc1)c1ccc(O)cc1`, the IC50 [1] was greater than 3000 nM and the IC50 [2] was 62 nM.
For `N#Cc1cccc2c1NC(=O)C2(c1ccc(O)cc1)c1ccc(O)cc1`, the IC50 [1] was greater than 3000 nM and the IC50 [2] was 57 nM.
With `O=C1Nc2c(ccc(F)c2F)C1(c1ccc(O)cc1)c1ccc(O)cc1` the Activity [10] was 98%, the Activity [3] was 1 µM and the Activity [4] was greater than 10 µM. It also gave an IC50 [1] greater than 3000 nM, a solubility [5] of 230 µg/mL (≈ 651 µM) and a Papp [6] of 4.31 ×10⁻⁶ cm/s. The Activity [7] was greater than 10 µM, the Activity [8] was 1 µM and the IC50 [2] was 3 nM. The Activity [9] was greater than 10 µM.
